From ChEMBL document CHEMBL1201862, “PubChem BioAssay data set” (2004)
Active and inactive are the calls of the source.

Columns and labels:
[1] = system: INS1; assay: INS-1E survival protection against cytokine death – cell-based, luminescence, retest, dose response (AID 449756); assay type: functional; details: Rattus norvegicus;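 note: cell death triggered by IL-1 beta plus TNF-alpha plus IFN-gamma mixture; protective hits raise ATP signal compared with cytokine alone wells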
[2] = target: Luciferin 4-monooxygenase (Photinus pyralis, UniProt P08659); assay: inhibition of purified Photinus pyralis luciferase – biochemical, luminescence, dose response (AID 1891)
[3] = Luminescence Cell-Based Dose Confirmation HTS to Identify Inhibitors of Platelet Dense Granule Release. [Related pubchem assays: 1663 (Primary HTS), 1678 (Summary of Project)]; assay type: functional
[4] = system: Streptococcus sp. 'group A'; assay: Streptococcus pyogenes SK(-)GAS viability under kanamycin – luminescence, BacTiterGlo, confirmation, counter-screen for streptokinase expression inhibitor project, dose response (AID 1900); assay type: functional, organism-based
[5] = target: T1, Streptokinase A (Streptococcus pyogenes serotype M1, UniProt P10520); assay: viability-normalized secreted streptokinase activity reduction – plasminogen activation absorbance, OD405, dose response (AID 1914); assay type: functional, Streptococcus pyogenes M1 GAS;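 note: secreted streptokinase activity via plasminogen activation per viability signal from cell pellet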
T1 sequence (P10520 whole entry): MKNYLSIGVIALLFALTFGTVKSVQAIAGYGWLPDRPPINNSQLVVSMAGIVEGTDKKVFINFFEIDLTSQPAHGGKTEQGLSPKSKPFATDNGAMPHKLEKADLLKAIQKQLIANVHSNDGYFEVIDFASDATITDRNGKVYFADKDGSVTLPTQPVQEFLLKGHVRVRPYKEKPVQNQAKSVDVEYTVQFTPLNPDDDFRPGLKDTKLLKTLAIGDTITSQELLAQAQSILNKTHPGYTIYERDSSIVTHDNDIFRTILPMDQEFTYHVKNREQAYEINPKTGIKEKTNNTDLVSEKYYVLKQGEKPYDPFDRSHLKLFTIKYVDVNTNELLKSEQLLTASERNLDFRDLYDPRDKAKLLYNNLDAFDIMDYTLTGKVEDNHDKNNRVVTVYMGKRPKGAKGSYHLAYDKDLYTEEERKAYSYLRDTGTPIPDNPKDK

[6] = system: Streptococcus; assay: GAS UMAA2166 growth inhibition – luminescence, BacTiterGlo, counter-screen for streptokinase expression inhibitor project, dose response (AID 1915); assay type: functional, organism-based;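 note: potency for reduction of bacterial viability or growth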
[7] = Luminescence Cell-Based Dose Retest to Confirm Inhibitors of Cancer Stem Cells. [Related pubchem assays (depositor defined):AID2717, AID2721]; assay type: functional; details: Homo sapiens
[8] = Trypanosoma cruzi growth suppression in host cells – NIH3T3 host cells, beta-gal luminescence, confirmation (AID 2044); assay type: functional, cell-based;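 note: intracellular parasites grown in NIH/3T3 mouse fibroblasts as host cells; luminescent beta-galactosidase reporter signal from transgenic T. cruzi replicating inside host cells; inhibitors lower the luminescence signal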
[9] = NIH3T3 cell viability loss – ATP luminescence, mouse fibroblasts, counter-screen, dose response (AID 2010); assay type: functional, cell-based;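 note: cells exposed to compound for about 90 hours before reading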
[10] = target: T2, Rac GTPase-activating protein 1 (Homo sapiens, UniProt Q9H0H5); assay: blockers of MgcRacGAP-driven Rac1 GTP hydrolysis – biochemical, ADP Hunter fluorescence, primary and confirmatory, confirmation (AID 624330); assay type: functional
T2 sequence (Q9H0H5 whole entry): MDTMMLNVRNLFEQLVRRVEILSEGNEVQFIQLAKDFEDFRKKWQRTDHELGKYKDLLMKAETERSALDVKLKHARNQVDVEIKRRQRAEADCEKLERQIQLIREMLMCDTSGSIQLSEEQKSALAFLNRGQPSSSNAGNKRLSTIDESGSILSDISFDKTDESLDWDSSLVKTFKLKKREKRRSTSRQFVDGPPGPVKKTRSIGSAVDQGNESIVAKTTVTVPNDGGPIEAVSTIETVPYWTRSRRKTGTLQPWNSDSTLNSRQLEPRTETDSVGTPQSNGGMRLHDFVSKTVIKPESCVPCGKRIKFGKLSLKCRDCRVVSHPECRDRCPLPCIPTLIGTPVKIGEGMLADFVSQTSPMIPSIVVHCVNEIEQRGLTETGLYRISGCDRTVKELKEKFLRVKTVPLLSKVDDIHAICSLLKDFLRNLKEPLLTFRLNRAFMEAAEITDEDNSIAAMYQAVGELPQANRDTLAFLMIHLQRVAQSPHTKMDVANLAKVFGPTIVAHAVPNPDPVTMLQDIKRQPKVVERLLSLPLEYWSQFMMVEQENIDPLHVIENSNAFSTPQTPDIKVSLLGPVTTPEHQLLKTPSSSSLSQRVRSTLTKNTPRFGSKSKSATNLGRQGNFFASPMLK

[11] = target: Cytochrome P450 2C19 (Homo sapiens, UniProt P33261); assay: Cytochrome panel assay with activity outcomes. Panel member name: p450-cyp2c19 Compounds with AC50 equal or less than 10 uM are considered active; assay type: functional; details: read-out: AC50
[12] = target: T3, Cytochrome P450 1A2 (Homo sapiens, UniProt P05177);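 note: PubChem cytochrome P450 panel assay, CYP1A2 panel member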
T3 sequence (P05177 whole entry): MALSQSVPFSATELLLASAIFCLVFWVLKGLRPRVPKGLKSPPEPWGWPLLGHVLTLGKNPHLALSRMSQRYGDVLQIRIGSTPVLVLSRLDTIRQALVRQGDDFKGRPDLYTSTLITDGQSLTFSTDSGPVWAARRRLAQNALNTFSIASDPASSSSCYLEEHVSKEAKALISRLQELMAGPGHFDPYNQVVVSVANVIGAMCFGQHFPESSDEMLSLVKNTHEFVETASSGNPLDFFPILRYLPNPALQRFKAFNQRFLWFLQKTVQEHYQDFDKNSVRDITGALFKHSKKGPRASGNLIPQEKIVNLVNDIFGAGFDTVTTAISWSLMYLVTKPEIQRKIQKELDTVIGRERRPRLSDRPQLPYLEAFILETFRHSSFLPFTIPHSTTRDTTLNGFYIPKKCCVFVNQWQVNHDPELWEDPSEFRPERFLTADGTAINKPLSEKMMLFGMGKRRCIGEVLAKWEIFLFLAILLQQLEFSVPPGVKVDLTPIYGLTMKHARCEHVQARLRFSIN

[13] = target: Cytochrome P450 3A4 (Homo sapiens, UniProt P08684);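 note: CYP3A4 tested as one member of a cytochrome P450 panel screen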
[14] = target: Cytochrome P450 2C9 (Homo sapiens, UniProt P11712)
[15] = viability of uninfected HEp-2 cells – cell-based, HTS, cytotoxicity control for RSV inhibitor project, dose response (AID 2410); assay type: functional; details: human respiratory syncytial virus

Luciferin 4-monooxygenase, sequence (P08659 whole entry): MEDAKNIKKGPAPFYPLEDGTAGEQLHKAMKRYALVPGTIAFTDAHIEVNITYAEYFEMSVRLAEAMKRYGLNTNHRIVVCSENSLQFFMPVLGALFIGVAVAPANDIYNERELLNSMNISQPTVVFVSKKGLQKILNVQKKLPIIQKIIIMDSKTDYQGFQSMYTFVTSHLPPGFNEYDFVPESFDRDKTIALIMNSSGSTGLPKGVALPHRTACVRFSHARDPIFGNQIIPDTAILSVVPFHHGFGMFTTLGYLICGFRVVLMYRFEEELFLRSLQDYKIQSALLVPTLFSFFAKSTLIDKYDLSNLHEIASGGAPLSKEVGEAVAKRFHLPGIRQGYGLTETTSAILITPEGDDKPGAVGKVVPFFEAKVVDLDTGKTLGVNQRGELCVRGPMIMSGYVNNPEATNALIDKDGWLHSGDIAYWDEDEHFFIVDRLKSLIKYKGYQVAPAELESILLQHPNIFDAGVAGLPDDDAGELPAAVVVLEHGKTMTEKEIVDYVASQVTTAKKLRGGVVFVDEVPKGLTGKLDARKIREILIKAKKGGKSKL
Cytochrome P450 2C9, sequence (P11712 whole entry): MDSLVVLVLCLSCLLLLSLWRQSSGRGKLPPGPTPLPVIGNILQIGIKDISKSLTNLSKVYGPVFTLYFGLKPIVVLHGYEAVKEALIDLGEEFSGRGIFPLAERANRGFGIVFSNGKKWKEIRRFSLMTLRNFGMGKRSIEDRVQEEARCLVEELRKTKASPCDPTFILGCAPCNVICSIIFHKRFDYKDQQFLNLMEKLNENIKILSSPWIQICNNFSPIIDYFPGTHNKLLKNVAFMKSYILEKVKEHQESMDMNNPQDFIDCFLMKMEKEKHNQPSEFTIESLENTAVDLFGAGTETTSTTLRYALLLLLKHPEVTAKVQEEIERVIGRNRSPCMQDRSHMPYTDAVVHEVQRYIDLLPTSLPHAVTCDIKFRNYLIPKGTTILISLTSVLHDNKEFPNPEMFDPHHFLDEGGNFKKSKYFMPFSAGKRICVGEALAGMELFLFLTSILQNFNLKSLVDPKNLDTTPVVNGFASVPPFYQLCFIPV
Cytochrome P450 2C19, sequence (P33261 whole entry): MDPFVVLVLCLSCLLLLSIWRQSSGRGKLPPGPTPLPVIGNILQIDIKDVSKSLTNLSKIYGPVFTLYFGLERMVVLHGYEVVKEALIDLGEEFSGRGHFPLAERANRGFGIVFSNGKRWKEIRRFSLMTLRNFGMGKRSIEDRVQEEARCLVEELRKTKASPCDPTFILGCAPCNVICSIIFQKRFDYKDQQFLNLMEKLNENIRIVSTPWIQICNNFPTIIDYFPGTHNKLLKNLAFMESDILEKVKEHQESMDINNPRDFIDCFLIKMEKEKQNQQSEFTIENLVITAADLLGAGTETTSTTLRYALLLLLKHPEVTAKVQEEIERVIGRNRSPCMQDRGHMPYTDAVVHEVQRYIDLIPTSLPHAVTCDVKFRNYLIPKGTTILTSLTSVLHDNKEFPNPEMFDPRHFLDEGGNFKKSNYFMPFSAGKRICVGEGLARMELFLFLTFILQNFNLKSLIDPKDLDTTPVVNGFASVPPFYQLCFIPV
Cytochrome P450 3A4, sequence (P08684 whole entry): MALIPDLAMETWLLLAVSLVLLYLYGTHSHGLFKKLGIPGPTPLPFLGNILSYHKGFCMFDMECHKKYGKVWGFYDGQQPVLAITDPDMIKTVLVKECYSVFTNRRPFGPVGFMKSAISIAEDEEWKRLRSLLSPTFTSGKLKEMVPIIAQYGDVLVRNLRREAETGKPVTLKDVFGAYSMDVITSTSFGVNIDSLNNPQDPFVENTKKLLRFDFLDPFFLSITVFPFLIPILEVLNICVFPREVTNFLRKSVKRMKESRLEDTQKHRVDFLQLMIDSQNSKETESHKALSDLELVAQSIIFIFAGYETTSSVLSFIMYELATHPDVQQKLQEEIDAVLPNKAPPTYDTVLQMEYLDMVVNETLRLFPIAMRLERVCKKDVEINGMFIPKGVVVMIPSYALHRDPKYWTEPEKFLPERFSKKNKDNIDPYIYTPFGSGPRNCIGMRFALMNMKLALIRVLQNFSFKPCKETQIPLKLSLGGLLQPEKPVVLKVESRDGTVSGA

O=C(Nc1cccnc1)C1(F)C(F)(F)C(F)(F)C(F)(F)C(F)(F)C1(F)F
AC50 [1]: 3.18 µM (active)

CC(C)[C@@H](CO)NC(=O)c1ccc2c3n(nc2c1)-c1ccccc1CO3
EC50 [2]: 6.1 µM (active) | EC50 [3]: 2.69 µM (active)

CCN(CC)c1nc(C(F)(F)F)nc2c1nnn2Cc1ccccc1
EC50 [4]: 7.21 µM (active) | EC50 [5]: 12.4 µM (active) | EC50 [6]: > 150 µM (not active)

O=C(CCCN1C(=O)/C(=C/c2ccccc2)SC1=S)NCCCn1ccnc1
AC50 [7]: 76.3 µM (active) | AC50 [1]: 21.2 µM (active)

O=C(NC(=S)Nc1ccc(N2CCCCC2)c(Cl)c1)c1ccc2c(c1)OCCO2
AC50 [7]: 2.54 µM (active)

Cc1cc(OCCCCCN2CCCC2)ccc1Cl
EC50 [8]: 1.23 µM (active) | EC50 [9]: 19.2 µM (active) | IC50 [10]: 131 µM (active)

Cc1ccc(C(=O)NNC2=Nc3cccc4cccc2c34)cc1
EC50 [4]: 3.26 µM (active) | EC50 [5]: > 150 µM (not active) | EC50 [6]: > 150 µM (not active)

O=C(Nc1ccccc1)/C(=C\c1ccc2c(c1)OCO2)NC(=O)c1ccco1
AC50 [11]: 22.4 µM (inconclusive) | AC50 [12]: 25.1 µM (inconclusive) | AC50 [13]: 20 µM (inconclusive)

O=C(CNCc1ccco1)Nc1cccc(S(=O)(=O)N2CCCCC2)c1
IC50 [10]: 169 µM (active)

c1cc(N2CCCC3(CCNCC3)C2)ccn1
AC50 [11]: 25.1 µM (inconclusive) | AC50 [13]: 12.6 µM (inconclusive) | AC50 [14]: 25.1 µM (inconclusive)

CCO[C@H]1OC(C(=O)N2CCN(Cc3ccc4c(c3)OCO4)CC2)=C[C@@H](c2csc3ccccc23)[C@@H]1CCCO
AC50 [1]: 6.83 µM (active)

C[C@@H](C(=O)Nc1ccc2ccccc2c1)[C@@H]1C[C@@]1(C)[C@@H](N)c1ccccc1
AC50 [14]: 25.1 µM (inconclusive)

O=C(Nc1ccc(Cl)cc1)OCc1cc(-c2ccccc2Cl)on1
EC50 [2]: > 112 µM (not active) | EC50 [3]: > 112 µM (not active) | AC50 [14]: 1.12 µM (inconclusive)

Cc1ccc(OCCCC(=O)N2CCOCC2)cc1
AC50 [12]: 25.1 µM (inconclusive) | AC50 [13]: 25.1 µM (inconclusive) | AC50 [14]: 39.8 µM (inconclusive)

O=C(CSc1nnc(CNC(=O)c2c(F)cccc2F)o1)NCCc1ccccc1
EC50 [4]: > 150 µM (not active) | EC50 [5]: > 150 µM (not active) | EC50 [6]: > 150 µM (not active)

Cc1cc(O)nc2ccc(S(=O)(=O)NC3CCCCC3)cc12
EC50 [2]: > 112 µM (not active) | EC50 [3]: 3.55 µM (active)

CSc1nc(C)c2c(n1)N(c1ccc(C(C)C)cc1)CC2
AC50 [11]: 17.8 µM (inconclusive) | AC50 [14]: 11.2 µM (inconclusive)

COc1ccc2nc(C3CCCCC3)nc(C3CCCCC3)c2c1
EC50 [4]: 2.8 µM (active) | EC50 [5]: > 150 µM (not active) | EC50 [6]: 5.71 µM (active)

CNC[C@H](CC1CCCCC1)NC[C@H](CO)NCCc1cccc(C(F)(F)F)c1
CC50 [15]: 12.5 µM (active) | AC50 [7]: 7.61 µM (active)

CCOC(=O)c1sc2nccc(N(C)C)c2c1N=CNOCc1c(F)cccc1Cl
EC50 [4]: 11.6 µM (active) | EC50 [5]: 27 µM (active) | EC50 [8]: 1.26 µM (active) | EC50 [9]: > 60 µM (not active) | EC50 [6]: > 150 µM (not active)

O=C(Cn1cnc2c(cnn2-c2ccccc2)c1=O)OCc1ccccc1
EC50 [2]: > 112 µM (not active) | EC50 [3]: > 112 µM (not active)

COc1ccc(-c2nc3ccccc3c(=O)n2N)cc1
AC50 [11]: 0.631 µM (inconclusive) | AC50 [14]: 2.82 µM (inconclusive)

CCOC(=O)c1c(C)oc2cc(Br)c(OC(=O)N3CCOCC3)cc12
EC50 [2]: > 112 µM (not active) | EC50 [3]: > 112 µM (not active)

Fc1ccc(N2CCN(Cc3c[nH]nc3-c3ccccc3)CC2)cc1
EC50 [4]: > 150 µM (not active) | EC50 [5]: > 150 µM (not active) | EC50 [6]: > 150 µM (not active)

Cc1ccc(CS(=O)(=O)Cc2ccc(C(=O)NCC3CCCO3)o2)cc1 (configuration not stated)
AC50 [11]: 31.6 µM (inconclusive) | AC50 [13]: 15.8 µM (inconclusive) | AC50 [14]: 39.8 µM (inconclusive)

COC(=O)c1ccc(/C=C/c2nc(O)c3ccccc3n2)cc1
EC50 [2]: 17.7 µM (active) | EC50 [3]: 7.02 µM (active)

O=C(NC(=S)Nc1cccc(Cl)c1N1CCCC1)c1ccc(-c2cccc([N+](=O)[O-])c2)o1
AC50 [12]: 25.1 µM (inconclusive) | AC50 [14]: 5.01 µM (inconclusive)

Cc1ccccc1NCc1ccc([N+](=O)[O-])s1
AC50 [7]: 11 µM (active)

CCOc1cc(S(=O)(=O)Nc2ccc(CC)cc2)ccc1Cl
AC50 [7]: 6.17 µM (active)

COc1ccc(Cc2nnc(NC(=O)CSc3ccc(C)cc3)s2)cc1OC
AC50 [11]: 0.891 µM (inconclusive) | AC50 [14]: 2.51 µM (inconclusive)

O=C1NC(=O)C(=Cc2ccco2)C(=O)N1
IC50 [10]: 141 µM (active)

COc1ccc2cc(C(=O)N/N=C/c3sc4ccccc4c3O)ccc2c1
AC50 [7]: 1.61 µM (active) | AC50 [1]: 3.02 µM (active)

C(=N\N1CCOCC1)/c1nc(-c2ccccc2)n2ccccc12
IC50 [10]: 22.3 µM (active)

CCOC(=O)C(/C=N/c1ccc(C(O)(C(=O)OCC)C(F)(F)F)cc1C)=C(/O)OCC (configuration not stated)
AC50 [1]: 6.01 µM (active)

CCn1cc(C(=O)O)c(=O)c2cc(F)c(N/N=C/c3ccccc3[N+](=O)[O-])cc21
EC50 [4]: 4.31 µM (active) | EC50 [5]: > 150 µM (not active) | EC50 [6]: 13.4 µM (active) | AC50 [1]: 10.1 µM (active)

C/C(=N\Nc1ccc(Cl)c(Cl)c1)c1ccc(-n2ccnc2)cc1
CC50 [15]: 35.9 µM (active) | EC50 [4]: 3.05 µM (active) | EC50 [5]: 17.2 µM (active) | EC50 [6]: 11.9 µM (active)

CCNC(=O)[C@H]1O[C@@H](n2cnc3c(N)ncnc32)[C@H](O)[C@@H]1O [NECA]
EC50 [3]: < 0.088 µM (active)

O=c1oc(-c2ccc(O)c(O)c2)cc2cccc(O)c12 [THUNBERGINOL A]
IC50 [10]: 19.7 µM (active)
